{"source": "patent US20230345936A1", "about": "“NOVEL ENVIRONMENT-FRIENDLY HERBICIDE” (KUNMING INSTITUTE OF BOTANY, CHINESE ACADEMY OF SCIENCES, priority 2022, published 2023)", "key": {"[1]": {"experiment": "Dissolution of methyl 4-hydroxyphenylacetate in 15% ethanol solution", "type": "physicochemical", "details": "1.82787 g in 50 mL of 15% ethanol solution", "experimental": "The methyl 4-hydroxyphenylacetate was purchased on the market. 1.82787 g of methyl 4-hydroxyphenylacetate was weighed, and added with 50 mL of a 15% absolute ethanol solution for dissolution."}, "[2]": {"system": "Eupatorium adenophorum", "experiment": "Spraying herbicide aqueous solution on Eupatorium adenophorum plants (contact killing)", "type": "in vivo", "experimental": "(1) 25 mL of the methyl 4-hydroxyphenylacetate herbicide aqueous solution prepared in Example 1 was taken and sprayed evenly on the surface of Eupatorium adenophorum plants.\nWhen not sprayed, the Eupatorium adenophorum plant had one pair of top leaves, one head inflorescence, one pair of tender leaves under the top leaves, and three pairs of mature leaves. The plant was healthy and vigorous, with a height of 40-50 cm. […] The uppermost one pair of mature leaves among the three pairs of mature leaves withered in a large area. The lower two pairs of mature leaves began to wither from the edge inwards, and the axillary buds also died. These deaths were irreversible.\n(2) 25 mL of the methyl 4-hydroxyphenylacetate herbicide aqueous solution prepared in Example 3 was taken and sprayed evenly on the surface of Eupatorium adenophorum plants.\nWhen not sprayed, the Eupatorium adenophorum plant had one pair of top leaves, one head inflorescence, one pair of tender leaves under the inflorescence, and four pairs of mature leaves. The plant was healthy and vigorous, with a height of 40-50 cm.\n(5) 25 mL of the methyl 4-hydroxyphenylacetate herbicide aqueous solutions prepared in Comparative Examples 1 to 2 were taken and sprayed evenly on the surface of Eupatorium adenophorum plants."}}}
{"smiles": "COC(=O)Cc1ccc(O)cc1", "note": "[methyl 4-hydroxyphenylacetate, Methyl 4-hydroxyphenylacetate]", "values": [{"measurement": "solubility in 15% absolute ethanol solution", "setting": "[1]", "value": "could not be sufficiently dissolved"}, {"measurement": "effect on Eupatorium adenophorum at use concentration greater than 150 mmol/L", "setting": "[2]; sprayed once", "value": "contact killing effect"}, {"measurement": "time after spraying until old leaves / plant are basically withered", "setting": "[2]; use concentration greater than 150 mmol/L", "value": "4 to 5", "unit": "days"}]}
